In experiment [1] the target is human activated kallikrein enzyme (Homo sapiens, UniProt P03952). Description: Plasma kallikrein inhibition, fluorogenic PFR-AMC substrate, 500 pM activated kallikrein format. Particulars: 500 pM activated kallikrein, 300 uM PFR-AMC, 30 min preincubation, 10 min reaction; read-out: Primary Dose Response Assay: Average EC50. It counts as biochemical. The method in brief: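 500 pM enz + cpd, 30 min RT preinc; start w/ PFR-AMC 300 uM; 10 min RT; Ex380/Em460. Buffer: Tris 20 mM pH 7.5, EDTA 1 mM, NaCl 150 mM, PEG-400 0.1%, Triton 0.1%. EC50.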

For experiment [2], the target named is T1, plasma kallikrein (Homo sapiens, UniProt P03952).
T1 construct: from tissue
Kind of experiment: Neat human plasma assay, FXIIa contact pathway-activated, PFR-AMC substrate. Type of experiment: biochemical. The following applies: citrated human plasma 78% final, 10 nM human FXIIa, 100 μM PFR-AMC; read-out: Human Plasma Assay: IC90. The method in brief:
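Citrated human plasma (78% final) with compound, contact-activated by 10 nM human FXIIa in pKal buffer pH 7.5, with 100 μM PFR-AMC. Fluorescence (360/480 nm) followed 5 min at room temperature; rates versus concentration fitted by 4-parameter equation for IC50/IC90.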

The term EC50 denotes the concentration giving half of the maximal effect. In general, IC90 refers to the point of the concentration-response curve where the effect stands at 90%.

Chain of human activated kallikrein enzyme (P03952 391-638 limits assumed): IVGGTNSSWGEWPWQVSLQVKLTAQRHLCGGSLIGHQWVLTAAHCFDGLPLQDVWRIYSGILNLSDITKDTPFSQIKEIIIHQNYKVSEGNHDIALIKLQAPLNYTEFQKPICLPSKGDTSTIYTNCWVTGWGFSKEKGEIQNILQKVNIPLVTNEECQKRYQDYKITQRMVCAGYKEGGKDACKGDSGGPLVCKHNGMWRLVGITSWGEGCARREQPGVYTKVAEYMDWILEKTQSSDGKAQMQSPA
Chain of human activated kallikrein enzyme (P03952 20-390 partner limits assumed): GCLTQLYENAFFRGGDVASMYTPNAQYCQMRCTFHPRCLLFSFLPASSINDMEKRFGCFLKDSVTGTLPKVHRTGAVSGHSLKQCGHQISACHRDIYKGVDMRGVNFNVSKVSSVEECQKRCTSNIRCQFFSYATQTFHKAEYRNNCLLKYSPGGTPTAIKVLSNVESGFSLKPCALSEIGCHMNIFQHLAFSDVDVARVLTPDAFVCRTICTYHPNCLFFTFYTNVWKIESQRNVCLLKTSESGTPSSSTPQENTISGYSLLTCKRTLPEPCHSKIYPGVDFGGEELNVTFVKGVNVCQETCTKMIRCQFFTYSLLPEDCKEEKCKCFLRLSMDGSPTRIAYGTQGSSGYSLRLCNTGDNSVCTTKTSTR
T1 sequence (P03952 391-638 limits assumed): as the sequence (P03952 391-638 limits assumed) above
T1 sequence (P03952 20-390 partner limits assumed): as the sequence (P03952 20-390 partner limits assumed) above

Take `Cc1ccnc([C@H]2C[C@@H]2C(=O)Nc2cc(N[C@H](C)c3cn4cc(C5CC5)cc(N5CC6(COC6)CC5=O)c4n3)nc(C)n2)n1` [Example I-27, (1S,2S)—N-(6-(((R)-1-(6-cyclopropyl-8-(7-oxo-2-oxa-6-azaspiro[3.4]octan-6-yl)imidazo[1,2-a]pyridin-2-yl)ethyl)amino)-2-methylpyrimidin-4-yl)-2-(4-methylpyrimidin-2-yl)cyclopropane-1-carboxamide]: in experiment [1], the EC50 is less than 1 nM. Besides, the IC90 in experiment [2] was less than 400 nM.
For the compound `CN1CCC(Oc2cc(C3CC3)cn3cc(CNc4cc(NC(=O)[C@H]5C[C@@H]5c5cccc(Cl)c5)ncn4)nc23)C1=O` (stereo partly drawn) [Example I-147, (1S,2S)-2-(3-chlorophenyl)-N-(6-(((6-cyclopropyl-8-((1-methyl-2-oxopyrrolidin-3-yl)oxy)imidazo[1,2-a]pyridin-2-yl)methyl)amino)pyrimidin-4-yl)cyclopropane-1-carboxamide], the EC50 in experiment [1] was in the range of 1 to 10 nM. Also, in experiment [2], the IC90 is 1500 to 10000 nM.
Take `CN(C)S(=O)(=O)c1cc(C2CC2)cn2cc(CNc3cc(NC(=O)[C@H]4C[C@@H]4c4cccc(Cl)c4)ncn3)nc12` [Example I-151, (1S,2S)-2-(3-chlorophenyl)-N-(6-(((6-cyclopropyl-8-(N,N-dimethylsulfamoyl)imidazo[1,2-a]pyridin-2-yl)methyl)amino)pyrimidin-4-yl)cyclopropane-1-carboxamide]: the EC50 in experiment [1] lay in the range of 1 to 10 nM. Moreover, the IC90 in experiment [2] lay within 1500 to 10000 nM.
The like results for `CN1CCN(c2cc(C3CC3)cn3cc(CNc4cc(NC(=O)[C@H]5C[C@@H]5c5cccc(Cl)c5)ncn4)nc23)CC1=O` [Example I-153, (1S,2S)-2-(3-chlorophenyl)-N-(6-(((6-cyclopropyl-8-(4-methyl-3-oxopiperazin-1-yl)imidazo[1,2-a]pyridin-2-yl)methyl)amino)pyrimidin-4-yl)cyclopropane-1-carboxamide] were, in that order, 1 to 10 nM and 1500 to 10000 nM.
`O=C(Nc1cc(NCc2cn3cc(C4CC4)cc(N4CCSCC4=O)c3n2)ncn1)[C@H]1C[C@@H]1c1cccc(Cl)c1` [Example I-155, (1S,2S)-2-(3-chlorophenyl)-N-(6-(((6-cyclopropyl-8-(3-oxothiomorpholino)imidazo[1,2-a]pyridin-2-yl)methyl)amino)pyrimidin-4-yl)cyclopropane-1-carboxamide]: the EC50 in experiment [1] is less than 1 nM. In experiment [2], the IC90 lay within 1500 to 10000 nM.
Take `CN1CCN(c2cc(C3CC3)cn3cc(CNc4cc(NC(=O)[C@H]5C[C@@H]5c5cccc(Cl)c5)ncn4)nc23)C1=O` [Example I-157, (1S,2S)-2-(3-chlorophenyl)-N-(6-(((6-cyclopropyl-8-(3-methyl-2-oxoimidazolidin-1-yl)imidazo[1,2-a]pyridin-2-yl)methyl)amino)pyrimidin-4-yl)cyclopropane-1-carboxamide]: the EC50 in experiment [1] is less than 1 nM. Also, the IC90 in experiment [2] lay in the range of 1500 to 10000 nM.
On to `CC(C)(O)c1cc(C2CC2)cn2cc(CNc3cc(NC(=O)[C@H]4C[C@@H]4c4cccc(Cl)c4)ncn3)nc12` [Example I-159, (1S,2S)-2-(3-chlorophenyl)-N-(6-(((6-cyclopropyl-8-(2-hydroxypropan-2-yl)imidazo[1,2-a]pyridin-2-yl)methyl)amino)pyrimidin-4-yl)cyclopropane-1-carboxamide], for which, in experiment [1], the half-maximal effective concentration (EC50) lay within 1 to 10 nM. Further, in experiment [2], the concentration for an effect of 90% (IC90) was 10000 to 48000 nM.
As to `Cc1ccnc([C@H]2C[C@@H]2C(=O)Nc2cc(N(C)Cc3cn4cc(C5CC5)cc(S(C)(=O)=O)c4n3)nc(C)n2)n1` [Example I-161, (1S,2S)-N-(6-(((6-cyclopropyl-8-(methylsulfonyl)imidazo[1,2-a]pyridin-2-yl)methyl)(methyl)amino)-2-methylpyrimidin-4-yl)-2-(4-methylpyrimidin-2-yl)cyclopropane-1-carboxamide], the EC50 in experiment [1] was less than 1 nM. In addition, the 90% effect concentration (IC90) in experiment [2] fell in the range of 1500 to 10000 nM.
As to `CS(=O)(=O)c1cc(C2CC2)cn2cc(CNc3cc(NC(=O)[C@H]4C[C@@H]4c4cccc(Cl)c4)ncn3)nc12` [Example I-162, (1S,2S)-2-(3-chlorophenyl)-N-(6-(((6-cyclopropyl-8-(methylsulfonyl)imidazo[1,2-a]pyridin-2-yl)methyl)amino)pyrimidin-4-yl)cyclopropane-1-carboxamide], in experiment [1], the EC50 lay in the range of 1 to 10 nM. The IC90 in experiment [2] lay within 1500 to 10000 nM.
The like results for `CN1C(=O)CN(c2cc(C3CC3)cn3cc(CNc4cc(NC(=O)[C@H]5C[C@@H]5c5cccc(Cl)c5)ncn4)nc23)C1=O` [Example I-169, (1S,2S)-2-(3-chlorophenyl)-N-(6-(((6-cyclopropyl-8-(3-methyl-2,4-dioxoimidazolidin-1-yl)imidazo[1,2-a]pyridin-2-yl)methyl)amino)pyrimidin-4-yl)cyclopropane-1-carboxamide] were, in that order, less than 1 nM and 400 to 1500 nM.
Consider `O=C(Nc1cc(NCc2cn3cc(C4CC4)cc(N4CCOC4=O)c3n2)ncn1)[C@H]1C[C@@H]1c1cc(Cl)ccn1` [Example I-172, (1S,2S)-2-(4-chloropyridin-2-yl)-N-(6-(((6-cyclopropyl-8-(2-oxooxazolidin-3-yl)imidazo[1,2-a]pyridin-2-yl)methyl)amino)pyrimidin-4-yl)cyclopropane-1-carboxamide], for which the concentration giving a half-maximal response (EC50) in experiment [1] is less than 1 nM. In experiment [2], the IC90 is 400 to 1500 nM.
The corresponding values for `O=C(Nc1cc(NCc2cn3cc(C4CC4)cc(N4CCOC4=O)c3n2)ncn1)[C@H]1C[C@@H]1c1cccc(Cl)c1` [Example I-174, (1S,2S)-2-(3-chlorophenyl)-N-(6-(((6-cyclopropyl-8-(2-oxooxazolidin-3-yl)imidazo[1,2-a]pyridin-2-yl)methyl)amino)pyrimidin-4-yl)cyclopropane-1-carboxamide] are less than 1 nM and 1500 to 10000 nM.
As to `CN1CC(c2cc(C3CC3)cn3cc(CNc4cc(NC(=O)[C@H]5C[C@@H]5c5cccc(Cl)c5)ncn4)nc23)C1` [Example I-193, (1S,2S)-2-(3-chlorophenyl)-N-(6-(((6-cyclopropyl-8-(1-methylazetidin-3-yl)imidazo[1,2-a]pyridin-2-yl)methyl)amino)pyrimidin-4-yl)cyclopropane-1-carboxamide], the EC50 in experiment [1] is less than 1 nM. Also, in experiment [2], the IC90 is less than 400 nM.
As for `CN1C(=O)CCN(c2cc(C3CC3)cn3cc(CNc4cc(NC(=O)[C@H]5C[C@@H]5c5cccc(Cl)c5)ncn4)nc23)C1=O` [Example I-194, (1S,2S)-2-(3-chlorophenyl)-N-(6-(((6-cyclopropyl-8-(3-methyl-2,4-dioxotetrahydropyrimidin-1(2H)-yl)imidazo[1,2-a]pyridin-2-yl)methyl)amino)pyrimidin-4-yl)cyclopropane-1-carboxamide], the EC50 in experiment [1] is less than 1 nM. For the same compound, in experiment [2], the IC90 was 1500 to 10000 nM.
For `O=C(Nc1cc(NCc2cn3cc(C4CC4)cc(N4CCN5CC(O)CC5C4)c3n2)ncn1)[C@H]1C[C@@H]1c1cccc(Cl)c1` (stereo partly drawn) [Example I-196, (1S,2S)-2-(3-chlorophenyl)-N-(6-(((6-cyclopropyl-8-(7-hydroxyhexahydropyrrolo[1,2-a]pyrazin-2(1H)-yl)imidazo[1,2-a]pyridin-2-yl)methyl)amino)pyrimidin-4-yl)cyclopropane-1-carboxamide], the EC50 in experiment [1] fell in the range of 1 to 10 nM. The IC90 in experiment [2] lay in the range of 1500 to 10000 nM.
Regarding `CN1CC(O)(c2cc(C3CC3)cn3cc(CNc4cc(NC(=O)[C@H]5C[C@@H]5c5cccc(Cl)c5)ncn4)nc23)C1` [Example I-198, (1S,2S)-2-(3-chlorophenyl)-N-(6-(((6-cyclopropyl-8-(3-hydroxy-1-methylazetidin-3-yl)imidazo[1,2-a]pyridin-2-yl)methyl)amino)pyrimidin-4-yl)cyclopropane-1-carboxamide], in experiment [1], the EC50 is less than 1 nM. The IC90 in experiment [2] is less than 400 nM.
Regarding `CC1(C)CN(c2cc(C3CC3)cn3cc(CNc4cc(NC(=O)[C@H]5C[C@@H]5c5cccc(Cl)c5)ncn4)nc23)C(=O)O1` [Example I-199, (1S,2S)-2-(3-chlorophenyl)-N-(6-(((6-cyclopropyl-8-(5,5-dimethyl-2-oxooxazolidin-3-yl)imidazo[1,2-a]pyridin-2-yl)methyl)amino)pyrimidin-4-yl)cyclopropane-1-carboxamide], the EC50 in experiment [1] is 1 to 10 nM. Further, the IC90 in experiment [2] was in the range of 1500 to 10000 nM.
With `O=C(Nc1cc(NCc2cn3cc(C4CC4)cc(N4CCN5CCCC5C4)c3n2)ncn1)[C@H]1C[C@@H]1c1cccc(Cl)c1` (stereo partly drawn) [Example I-200, (1S,2S)-2-(3-chlorophenyl)-N-(6-(((6-cyclopropyl-8-(hexahydropyrrolo[1,2-a]pyrazin-2(1H)-yl)imidazo[1,2-a]pyridin-2-yl)methyl)amino)pyrimidin-4-yl)cyclopropane-1-carboxamide], the EC50 in experiment [1] is less than 1 nM. For the same compound, the IC90 in experiment [2] was in the range of 400 to 1500 nM.
For `O=C(Nc1cc(NCc2cn3cc(C4CC4)cc(N4CCN(C5COC5)CC4)c3n2)ncn1)[C@H]1C[C@@H]1c1cccc(Cl)c1` [Example I-202, (1S,2S)-2-(3-chlorophenyl)-N-(6-(((6-cyclopropyl-8-(4-(oxetan-3-yl)piperazin-1-yl)imidazo[1,2-a]pyridin-2-yl)methyl)amino)pyrimidin-4-yl)cyclopropane-1-carboxamide], in experiment [1], the EC50 was 1 to 10 nM. Further, the IC90 in experiment [2] was 400 to 1500 nM.
With `CC(=O)c1cc(C2CC2)cn2cc(CNc3cc(NC(=O)[C@H]4C[C@@H]4c4cccc(Cl)c4)ncn3)nc12` [Example I-207, (1S,2S)-N-(6-(((8-acetyl-6-cyclopropylimidazo[1,2-a]pyridin-2-yl)methyl)amino)pyrimidin-4-yl)-2-(3-chlorophenyl)cyclopropane-1-carboxamide], in experiment [1], the EC50 was in the range of 1 to 10 nM. The IC90 in experiment [2] was 1500 to 10000 nM.

For the origin of these results see patent US20240228488A1 (TAKEDA PHARMACEUTICAL COMPANY LIMITED, priority 2021, published 2024).
